According to patent US10590082B2, “N-(5-((aryl or heteroaryl)methyloxy)pentyl)-substituted iminosugars as inhibitors of glucosylceramide synthase” (Academisch Medisch Centrum, priority 2014, dated 2020):

Columns and labels:
[1] = system: intestinal glycosidases; settings: background statement; cited from earlier work
[2] = target: T1, glucosylceramide synthase (GCS) (Mus musculus, UniProt O88693); assay: GCS activity in living macrophage  cells (C6-NBD lipid, TLC readout); assay type: cell-based; settings: read-out: GCS [nM] (IC50)
T1 construct: IC50 values for GCS activity were measured using living cells; endogenous in cells
T1 sequence (O88693 1-394): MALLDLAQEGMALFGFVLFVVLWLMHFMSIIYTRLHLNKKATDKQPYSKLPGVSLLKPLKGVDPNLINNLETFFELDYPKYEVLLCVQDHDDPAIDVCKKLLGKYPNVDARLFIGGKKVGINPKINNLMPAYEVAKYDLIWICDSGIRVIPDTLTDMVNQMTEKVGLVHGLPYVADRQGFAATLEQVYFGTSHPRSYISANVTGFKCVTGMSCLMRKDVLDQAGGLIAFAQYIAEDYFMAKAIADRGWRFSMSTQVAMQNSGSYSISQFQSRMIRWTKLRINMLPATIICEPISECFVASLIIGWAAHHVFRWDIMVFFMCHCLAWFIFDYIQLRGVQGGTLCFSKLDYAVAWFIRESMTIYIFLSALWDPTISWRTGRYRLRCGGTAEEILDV

[3] = target: T2, GBA1 (Homo sapiens, UniProt P04062, R534H); assay: GBA1 activity, recombinant human enzyme (Cerezyme), 4-MU-β-glucoside substrate; assay type: biochemical;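 note: enzyme activity read out as fluorescence of the 4-MU released from the substrate, measured on a fluorimeter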
T2 construct: purchased Sanofi (Cerezyme)
T2 sequence (P04062 40-536 R534H): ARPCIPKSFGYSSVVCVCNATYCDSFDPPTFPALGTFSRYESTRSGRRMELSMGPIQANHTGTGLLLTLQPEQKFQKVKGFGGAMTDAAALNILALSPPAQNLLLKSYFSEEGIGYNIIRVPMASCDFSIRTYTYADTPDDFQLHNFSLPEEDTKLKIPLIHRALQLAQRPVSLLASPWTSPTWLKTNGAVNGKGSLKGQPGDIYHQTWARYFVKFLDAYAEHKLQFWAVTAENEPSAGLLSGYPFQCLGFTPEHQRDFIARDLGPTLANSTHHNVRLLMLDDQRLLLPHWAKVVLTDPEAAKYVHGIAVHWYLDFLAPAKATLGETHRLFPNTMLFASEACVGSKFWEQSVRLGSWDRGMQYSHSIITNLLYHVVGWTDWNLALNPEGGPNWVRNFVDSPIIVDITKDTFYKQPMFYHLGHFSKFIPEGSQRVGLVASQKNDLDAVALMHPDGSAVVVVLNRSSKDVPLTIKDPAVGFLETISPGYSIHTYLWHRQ

[4] = target: T3, GBA2 (Homo sapiens, UniProt Q9HCG7); assay: GBA2 activity, membrane fraction from Gaucher spleen, 4-MU-β-glucoside substrate; assay type: biochemical; settings: L-ido configuration series, Example 4;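 note: Read-out is fluorimetric quantification of released 4-MU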
T3 construct: measured using a membrane fraction obtained from Gaucher spleen; from tissue; host or cells: membrane fraction of Gaucher spleen, pre-treated with conduritol B-epoxide
T3 sequence (Q9HCG7 1-927): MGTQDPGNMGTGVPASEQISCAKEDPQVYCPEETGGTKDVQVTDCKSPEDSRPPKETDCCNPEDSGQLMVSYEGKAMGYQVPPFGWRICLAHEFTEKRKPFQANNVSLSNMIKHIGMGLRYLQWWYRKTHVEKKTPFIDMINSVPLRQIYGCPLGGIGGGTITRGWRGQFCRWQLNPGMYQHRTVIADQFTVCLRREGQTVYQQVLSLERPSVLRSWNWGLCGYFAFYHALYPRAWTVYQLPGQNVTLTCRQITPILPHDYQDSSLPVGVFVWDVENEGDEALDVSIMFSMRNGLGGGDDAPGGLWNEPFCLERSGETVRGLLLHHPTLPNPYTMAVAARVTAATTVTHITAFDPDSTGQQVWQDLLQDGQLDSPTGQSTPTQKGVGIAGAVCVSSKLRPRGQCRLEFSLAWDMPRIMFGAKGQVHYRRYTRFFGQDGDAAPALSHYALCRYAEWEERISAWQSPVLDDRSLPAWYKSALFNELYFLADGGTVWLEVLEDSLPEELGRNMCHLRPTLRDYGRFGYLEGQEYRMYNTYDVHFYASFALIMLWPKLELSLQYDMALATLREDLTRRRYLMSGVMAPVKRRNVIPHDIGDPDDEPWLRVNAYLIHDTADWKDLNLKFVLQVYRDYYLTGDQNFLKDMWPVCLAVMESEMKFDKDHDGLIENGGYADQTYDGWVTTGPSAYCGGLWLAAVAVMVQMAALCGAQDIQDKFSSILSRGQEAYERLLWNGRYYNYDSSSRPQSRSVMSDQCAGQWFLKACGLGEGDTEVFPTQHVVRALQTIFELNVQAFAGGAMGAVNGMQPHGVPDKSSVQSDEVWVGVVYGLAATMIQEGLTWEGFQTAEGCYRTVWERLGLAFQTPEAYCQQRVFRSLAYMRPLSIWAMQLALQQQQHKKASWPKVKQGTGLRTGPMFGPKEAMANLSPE

Row | SMILES | IC50 [2] [nM] | IC50 [3] [nM] | IC50 [4] [nM] | inhibitory activity against the intestinal glycosidases [1]
1 | OC[C@H]1[C@@H](O)[C@H](O)[C@@H](O)CN1CCCCCOCC12CC3CC(CC(C3)C1)C2 [Compound 2, (adamantanemethyloxypentyl)-L-ido-deoxynojirimycin] | – | – | – | little to no inhibitory activity
2 | OC[C@H]1[C@@H](O)[C@H](O)[C@@H](O)CN1CCCCCOCc1ccccc1-c1ccccc1 [Compound 40] | 25 | 15000 | 3 | –
3 | OC[C@H]1[C@@H](O)[C@H](O)[C@@H](O)CN1CCCCCOCc1cccc(-c2ccccc2)c1 [Compound 41] | 75 | 20000 | 2 | –

Second part, led by results:

Row | IC50 [2] [nM] | IC50 [3] [nM] | IC50 [4] [nM] | SMILES | inhibitory activity against the intestinal glycosidases [1]
4 | 15 | 12500 | 2 | OC[C@H]1[C@@H](O)[C@H](O)[C@@H](O)CN1CCCC(F)(F)COCc1ccc(-c2ccccc2)cc1 [Compound 43] | –
5 | 3 | 5000 | 0.1 | OC[C@H]1[C@@H](O)[C@H](O)[C@@H](O)CN1CCCCCOCc1ccc(-c2ccccc2)cc1C(F)(F)F [Compound 44] | –
6 | 3 | 6000 | 0.1 | OC[C@H]1[C@@H](O)[C@H](O)[C@@H](O)CN1CCCCCOCc1ccc(-c2ccccc2)c(C(F)(F)F)c1 [Compound 45] | –
7 | 5 | 8000 | 0.4 | OC[C@H]1[C@@H](O)[C@H](O)[C@@H](O)CN1CCCCCOCc1ccc(-c2ccccc2)cc1F [Compound 46] | –
8 | 2.5 | 6000 | 0.6 | OC[C@H]1[C@@H](O)[C@H](O)[C@@H](O)CN1CCCCCOCc1ccc(-c2ccccc2)c(F)c1 [Compound 47] | –
